This note sets out measurements from ChEMBL document CHEMBL1126579, “6-Azasteroids: potent dual inhibitors of human type 1 and 2 steroid 5 alpha-reductase” (J Med Chem, 1993).

In general, Ki refers to the equilibrium dissociation constant of an inhibitor or competing ligand from its target. The term IC50 denotes the concentration that gives 50% inhibition. For orientation: half-life means the time needed for the level to fall by half in the phase considered. In general, bioavailability refers to the share of a dose that reaches the circulation, judged against a reference dose that is usually intravenous.

The target of data set [1] is T1, 3-oxo-5-alpha-steroid 4-dehydrogenase 1 (Homo sapiens, UniProt P18405).
T1 sequence (P18405 whole entry): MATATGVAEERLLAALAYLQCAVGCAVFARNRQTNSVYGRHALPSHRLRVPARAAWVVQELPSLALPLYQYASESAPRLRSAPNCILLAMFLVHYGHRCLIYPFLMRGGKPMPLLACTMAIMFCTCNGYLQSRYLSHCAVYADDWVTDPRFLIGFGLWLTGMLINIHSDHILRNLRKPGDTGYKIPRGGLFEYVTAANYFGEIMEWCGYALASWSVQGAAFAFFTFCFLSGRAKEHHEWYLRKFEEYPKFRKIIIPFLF
Description: Inhibition of recombinant human 5-alpha reductase-1 […] after pre-incubation for 10 minutes.

The test system of a further data set is Rattus norvegicus. Description: In vivo evaluation in chronic castrated rat to inhibit T-stimulated prostate growth expressed as percentage reduction. Also noted: concentration or dose not given beside the values. It counts as functional, Prostate gland.
In data set [2] the target is T2, 3-oxo-5-alpha-steroid 4-dehydrogenase 2 (Homo sapiens, UniProt P31213).
T2 sequence (P31213 whole entry): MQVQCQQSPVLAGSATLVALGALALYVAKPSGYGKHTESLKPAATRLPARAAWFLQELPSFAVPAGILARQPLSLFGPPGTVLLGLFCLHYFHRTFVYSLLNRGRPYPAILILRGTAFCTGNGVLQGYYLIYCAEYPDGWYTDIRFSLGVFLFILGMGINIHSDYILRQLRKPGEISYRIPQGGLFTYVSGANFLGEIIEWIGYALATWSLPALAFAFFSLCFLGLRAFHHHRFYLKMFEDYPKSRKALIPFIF
Kind of data set: Inhibition of recombinant human 5-alpha reductase-2 […] after pre-incubation for 10 minutes.

Data set [3] is described as follows: Half-life in dog. Format: ADME, organism-based, Canis lupus familiaris. To be noted: in vivo.
Data set [4] in a line: Bioavailability after oral administration in dog. It counts as ADME, organism-based, Canis lupus familiaris. The settings on record: in vivo.

On to `C[C@]12CCC(=O)C=C1NCC1C2CC[C@@]2(C)C1CC[C@@H]2C(=O)C1[C@H]2C[C@@H]3C[C@@H](C[C@H]1C3)C2` (some centres undefined), for which the Ki in data set [1] was determined as 6.9 nM. In the data set with Rattus norvegicus, this compound had a Reduction of 26%. For the same compound, in data set [2], the IC50 stood at 0.04 nM.

For the compound `C[C@]12CCC(=O)C=C1NCC1C2CC[C@@]2(C)C1CC[C@@H]2C(=O)NCc1ccccc1` (some centres undefined), the Ki in data set [1] turned out to be 360 nM.

Consider `CC(C)CC(=O)[C@H]1CCC2C3CNC4=CC(=O)CC[C@]4(C)C3CC[C@@]21C` (some centres undefined), for which, in data set [1], the Ki was 9 nM. The Reduction with Rattus norvegicus is 18%. Further, in data set [2], the IC50 was 0.08 nM.

In the case of `CC(C)(C)NC(=O)[C@H]1CC[C@H]2[C@@H]3CC=C4C=C(C(=O)O)CC[C@]4(C)[C@H]3CC[C@]12C` [EPRISTERIDE], the Ki in data set [1] is greater than 5000 nM. Besides, the IC50 in data set [2] was determined as 30 nM.

For `CCN(CC)C(=O)[C@H]1CCC2C3CNC4=CC(=O)CC[C@]4(C)C3CC[C@@]21C` (some centres undefined), in data set [1], the Ki came to 750 nM. Moreover, the IC50 in data set [2] was determined as 1.5 nM.

As for `COC(=O)[C@H]1CCC2C3CNC4=CC(=O)CC[C@]4(C)C3CC[C@@]21C` (some centres undefined), in data set [1], the Ki amounted to 150 nM.

For the compound `C[C@]12CCC(=O)C=C1NCC1C2CC[C@@]2(C)C1CC[C@@H]2C(=O)N(Cc1ccccc1)Cc1ccccc1` (some centres undefined), the Ki in data set [1] was found to be 75 nM.

Regarding `C[C@]12CCC(=O)C=C1NCC1C2CC[C@@]2(C)C1CC[C@@H]2C(=O)N1CCSCC1` (some centres undefined), the Ki in data set [1] was determined as 570 nM.

As to `CC(C)NC(=O)[C@H]1CCC2C3CNC4=CC(=O)CC[C@]4(C)C3CC[C@@]21C` (some centres undefined), the Ki in data set [1] amounted to 6000 nM.

Compound `C[C@]12CCC(=O)C=C1NCC1C2CC[C@@]2(C)C1CC[C@@H]2C(=O)NC(c1ccc(Cl)cc1)c1ccc(Cl)cc1` (some centres undefined) gave a half-life in data set [3] of 12 h. In addition, the Ki in data set [1] amounted to 20 nM. The Reduction in the data set on Rattus norvegicus is 31%. Besides, in data set [2], the IC50 was determined as 0.12 nM.

Turning to `C[C@]12CCC(=O)C=C1NCC1C2CC[C@@]2(C)C1CC[C@@H]2C(=O)NC12C[C@H]3C[C@@H](C1)C[C@@H](C2)C3` (some centres undefined), in data set [1], the Ki came to 11 nM. This compound also displayed a Reduction in the data set on Rattus norvegicus of 18%.

Consider `CC(C)(C)NC(=O)[C@H]1CC[C@H]2[C@@H]3CC[C@H]4NC(=O)C=C[C@]4(C)[C@H]3CC[C@]12C` [FINASTERIDE], for which the concentration for half-maximal inhibition (IC50) in data set [1] was found to be 150 nM; in data set [2], 0.18 nM. Besides, the Reduction in the data set with Rattus norvegicus worked out at 41%.

As to `C[C@]12CCC(=O)C=C1NCC1C2CC[C@@]2(C)C1CC[C@@H]2C(=O)NC(C1CCCCC1)C1CCCCC1` (some centres undefined), the Ki in data set [1] worked out at 20 nM. This compound also registered a Reduction with Rattus norvegicus of 14%. The IC50 in data set [2] worked out at 0.4 nM.

For the compound `CC(C)(C)NC(=O)[C@H]1CCC2C3CNC4=CC(=O)CC[C@]4(C)C3CC[C@@]21C` (some centres undefined), the Ki in data set [1] is 820 nM.

The compound `C[C@]12CCC(=O)C=C1NCC1C2CC[C@@]2(C)C1CC[C@@H]2C(=O)NC(c1ccccc1)c1ccccc1` (some centres undefined) gave a bioavailability in data set [4] of 80%. The Ki in data set [1] was 30 nM. For the same compound, the Reduction in the data set on Rattus norvegicus was determined as 43%. Further, the IC50 in data set [2] turned out to be 0.09 nM.

Consider `C[C@]12CCC(=O)C=C1NCC1C2CC[C@@]2(C)C1CC[C@@H]2C(=O)NC(c1ccc(F)cc1)c1ccc(F)cc1` (some centres undefined), for which the Ki in data set [1] turned out to be 20 nM. In addition, the Reduction in the data set on Rattus norvegicus was 43%.

Turning to `CON(C)C(=O)[C@H]1CCC2C3CNC4=CC(=O)CC[C@]4(C)C3CC[C@@]21C` (some centres undefined), the Ki in data set [1] amounted to 2300 nM. Also, in data set [2], the IC50 turned out to be 2.4 nM.

As to `C[C@]12CCC(=O)C=C1NCC1C2CC[C@@]2(C)C1CC[C@@H]2C(=O)N1CCOCC1` (some centres undefined), the Ki in data set [1] was 2200 nM. Also, the IC50 in data set [2] is 7.1 nM.

For `CCN(C)C(=O)[C@H]1CCC2C3CNC4=CC(=O)CC[C@]4(C)C3CC[C@@]21C` (some centres undefined), the Ki in data set [1] amounted to 720 nM. In data set [2], the IC50 is 2.8 nM.

On to `CC(C)N(C(=O)[C@H]1CCC2C3CNC4=CC(=O)CC[C@]4(C)C3CC[C@@]21C)C(C)C` (some centres undefined), for which, in data set [1], the Ki is 190 nM. The IC50 in data set [2] came out at 0.36 nM.

For `C[C@]12CCC(=O)C=C1NCC1C2CC[C@@]2(C)C1CC[C@@H]2C(=O)NC(c1ccccc1)(c1ccccc1)c1ccccc1` (some centres undefined), the Ki in data set [1] is 8.2 nM. The compound also registered a Reduction with Rattus norvegicus of 4%. For the same compound, the IC50 in data set [2] came out at 0.09 nM.

Regarding `C[C@]12CCC(=O)C=C1NCC1C2CC[C@@]2(C)C1CC[C@@H]2C(=O)NN(c1ccccc1)c1ccccc1` (some centres undefined), the Ki in data set [1] stood at 14 nM. In addition, in the data set with Rattus norvegicus, the Reduction amounted to 38%. Further, the IC50 in data set [2] turned out to be 0.23 nM.

Consider `C[C@]12CCC(=O)C=C1NCC1C2CC[C@@]2(C)C1CC[C@@H]2C(=O)N1CCNCC1` (some centres undefined), for which the Ki in data set [1] amounted to 8600 nM.
